Data on 1 molecule can be found in patent US20260272907A1, “Therapeutic Tyrosine Kinase Inhibitors for Multiple Sclerosis” (Principia Biopharma Inc., priority 2022, published 2026).

In the assay the test system is patients with relapsing multiple sclerosis. Nature of the assay: Long-term safety extension: number of new or enlarging T2 lesions (MRI). The class given is in vivo, human. The method, then:
In the current open-label extension Part B, all patients receive 60 mg/day. MRI outcomes include numbers of new Gd-enhancing and new/enlarging T2 lesions, T2 lesion volume change from baseline, slowly evolving lesions (SEL), and paramagnetic rim lesions (PRL).
The Week 0 value is from the last MRI obtained in the dose-finding study if performed within 6 weeks prior to Day 1 of the long-term safety study For some patients the Week 0 value began after a gap period ranging from 0-21 weeks. For patients where the gap period was 0 weeks, the Week 0 value began immediately after the completion of Week 16 of the dose-finding study. For patients where the gap period was greater than 6 weeks a new MRI was obtained prior to Day 1 of the long-term safety study.
If from Week 16 of the dose-finding study (Cohort 2), it is also included in Week 12. If from Week 16 of the dose-finding study (Cohort 1), it is after 4 weeks placebo run out.

Turning to `C=CC(=O)N1CCC[C@@H](n2c(=O)n(-c3ccc(Oc4ccccc4)cc3)c3c(N)nccc32)C1` [the BTK inhibitor, (R)-1-(1-acryloylpiperidin-3-yl)-4-amino-3-(4-phenoxyphenyl)-1H-imidazo[4,5-c]pyridin-2(3H)-one], the “Number of new or enlarging T2 lesions, Mean (SD)” value is, setting by setting: (5/60 mg, Week 0) 3.97 (8.47); (5/60 mg, Week 12) 1.68 (3.49); (15/60 mg, Week 0) 3.52 (6.51); (15/60 mg, Week 12) 1.32 (1.83); (30/60 mg, Week 0) 3.41 (7.32); (30/60 mg, Week 12) 1.34 (4.97). Further, the “Number of new or enlarging T2 lesions, Mean (SD)” value is 1.10 (1.87) (60/60 mg, Week 0); 0.29 (0.69) (60/60 mg, Week 12); 3.00 (6.56) (All (N = 125), Week 0); 1.16 (3.21) (All (N = 125), Week 12). The “Number of new or enlarging T2 lesions, Median” value reads like this: (5/60 mg, Week 0) 0.00; (5/60 mg, Week 12) 0.00; (15/60 mg, Week 0) 1.00; (15/60 mg, Week 12) 1.00; (30/60 mg, Week 0) 0.00; (30/60 mg, Week 12) 0.00. Also, the “Number of new or enlarging T2 lesions, Median” value is, setting by setting: (60/60 mg, Week 0) 0.00; (60/60 mg, Week 12) 0.00; (All (N = 125), Week 0) 0.00; (All (N = 125), Week 12) 0.00. For the same molecule, the “New/enlarging T2 lesion counts” value (60/60 mg, LTS through W96) is recorded as “remained low”.
